Data set [1] can be described thus: pKa and protonation of the side-chain amines. Format: physicochemical.
Data set [2] has as its system neonatal rat cardiomyocytes (NRCs). Kind of data set: Lactate dehydrogenase release assay for cardiac myocytes. Format: cell-based, Sprague Dawley rat. The settings on record: 5 μM, 10 μM, and 25 μM; 24 h. How it is done: (§1) Cell Lines and Maintenance. Primary Neonatal Rat Cardiomyocyte Culture. The inventors isolated neonatal rat cardiomyocytes (NRCs) from the ventricles of 1-2 day old Sprague Dawley rat pups as described previously. Briefly, ventricular tissues excised from rat pups were digested with collagenase at 4° C. overnight with subsequent digestion in trypsin. Next, cells were preplated to remove cardiac fibroblasts, followed by plating of isolated cardiomyocytes at 1.5×10^6 cells per 10 cm^2 plate in αMEM containing 10% fetal bovine serum (FBS) (Gibco) and 1% antibiotic-antimycotic (Gibco) media. After 24 h, NRCs were maintained in Dulbecco's modified Eagle's medium (DMEM) (Gibco) containing 2% FBS and 1% antibiotic-antimycotic and subjected to different treatments, as described previously. All cell culture treatments were repeated in three independent experiments.
Biochemical Assays. Lactate Dehydrogenase Release Assay for Cardiac Myocytes. Following treatments, culture media were collected and cleared by centrifugation at 5000 g for 10 min. Lactate dehydrogenase (LDH) release into culture media was measured using a cytotoxicity detection kit (Roche®) as per the manufacturer's instructions. Color development was measured using a microplate absorbance reader at an absorbance of 492 nm (Bio-Rad®).

The subject of a further data set is p53. Briefly: Western blot of p53 expression in NRCs. The settings on record: 10 μM, 24 h. The data set is classed as cell-based, Sprague Dawley rat. Here is the method:
as §1
Protein Extraction and Western Blot Analyses. NRCs were washed with PBS and lysed with CelLytic M (Sigma-Aldrich) lysis buffer containing a complete protease inhibitor cocktail (Roche®). […] The protein concentration of the soluble cardiomyocyte lysates was measured using the modified Bradford reagent relative to a BSA standard curve (Bio-Rad®) in a 1 mL cuvette on a DS-11 FX+ spectrophotometer (DeNovix®, Wilmington, DE). […]
A general note: Immunoblotting shows a protein as a band on a membrane.

Structures are written as SMILES.

The compound `CCCCN(CCN)CCCC` gave a pKa in data set [1] of 4. In addition, the fraction protonated in data set [1] (pH 4.5) is 24%; in data set [1] (pH 5.5) it was 3%.
For `NCCN1CCCC1` [PY, 2-pyrrolidine-1-yl-ethyl-amine] the same measures were 5.4, 89% and 44%.
`COc1cccc2c1C(=O)c1c(O)c3c(c(O)c1C2=O)C[C@@](O)(C(=O)CO)C[C@@H]3O[C@H]1C[C@H](N)[C@H](O)[C@H](C)O1` [con-DOX, doxorubicin]: the “LDH release (cell death)” value in data set [2] is on record as “dose-dependent increase in cell death”. Besides, in the data set with p53, the p53 protein expression result is “increased p53 expression”.

The pKa is the pH at which an ionisable group is half protonated.
